Key:
[1] = tested on: human dental pulp cells; settings: cited from earlier work
[2] = tested on: primary mesenchimal stem cell culture; settings: in vitro; cited from earlier work
[3] = tested on: osteoblastic cells; settings: comparable to growth factors such as BMP and IGF-1; cited from earlier work
[4] = tested on: alveolar bone extraction socket
Description: One mandibular premolar per side was extracted. The intra-socket septae in the extraction socket were removed and the wound margins adapted.
Treatment Group I (10 dogs-5 per each time point 3 days and 28 days): • a.
Treatment Group 2 (10 dogs-5 per each time point 3 days and 28 days): • a.
Treatment Group 3 (6 dogs-3 per each time point 3 days and 28 days): • a. Right side: create gingival flap around #407; extract #407 (section with 7011); remove intra-socket septa with 5511; radiograph; measure socket depth; soak a collagen sponge in BMP2; apply collagen sponge to socket; close gingival flap with 4-0 maxon. • b. Left side; create gingival flap around #307; extract #307 (section with 701 l); remove intra-socket septa with 551 l; radiograph; measure socket depth; soak a collagen sponge in 100 μl of saline, apply collagen sponge to socket; close gingival flap with 4-0 maxon.
After the specimens were received, the specimens were processed, decalcified and embedded in paraffin. The mandible specimens were stained with Toluidine blue for osteoblast evaluations.
Histopathological assessment of the stained section was done without knowledge of treatment group. Qualitative observations included the analysis of the underlying bone, including any soft tissue, which may have come into contact with the test material formulation. Fibrous tissue encapsulation, cellular infiltrates and inflammatory responses at the repair site and the soft tissues were also evaluated.
Static histomorphometric analysis was performed on sections stained with toluidine blue stain to determine the percent area of bone in-growth present within the samples using an OsteoMeasure® image analysis system, and associate software (version 4.00c). The amount and quality of the newly formed bone was scored for 0-4, respectively, and evaluated collectively. Tissue reaction such as inflammation and presence of fibrous tissue were also evaluated using the respective scoring system.

[5] = tested on: bone fracture; settings: rats; local injection near the fracture site; cited from earlier work
[6] = tested on: bone formation; settings: mice; cited from earlier work
[7] = tested on: dentin and pulp tissue of teeth with deep class V preparations; experiment: Indirect pulp capping study in dogs (deep class V preparations in maxillary teeth)
Protocol: Deep class V preparations were made without penetrating the pulp cavity on the buccal (labial) side of 8 maxillary teeth (2 premolars and 1 molar on each side of the oral cavity in one canine) in 10-month old Beagle dogs. A radiograph was taken to confirm location of the pulp cavity. The cavities (defects) were drilled perpendicular to the tooth axis (pulp cavity). […] The solution was left in the dry cavity for 2 minutes after which the base of the cavity was covered with Vitrebond and the teeth were sealed with composite.
The solution was left in the dry cavity for 2 minutes after which the cavities were filled with cotton and sealed with Cavit. The dogs in Treatment group 2 were re-treated 3× a week for 1 week (the teeth on the left side) or for 2 weeks (the teeth on the right side). […] The solution was left in the dry cavity for 2 minutes after which the cavities were filled with cotton and sealed with Cavit.
The teeth in treatment group 3 were used as negative (saline) or positive (Dycal) controls. Two of the 4 teeth per animal that were used as negative controls were treated with 2 uL saline. The solution was left in the dry cavity for 2 minutes after which the base of the cavity was covered with Vitrebond and the teeth were sealed with composite. The other 2 teeth used as negative control were treated for 15 sec with Scotchbond Etchant (Single Bond adhesive system), washed with water, air dried and treated with 2 uL saline. The solution was left in the dry cavity for 2 minutes after which the base of the cavity was covered with Single Bond, cured with light and the teeth were sealed with composite. The 2 teeth per animal in treatment group 3 that were used as a positive control were treated with Dycal and sealed with composite using standard operating procedures.
After the specimens were received, the specimens were processed, decalcified and embedded in paraffin. The maxilla specimens were stained with Haematoxylin and eosin (H&E) for new dentin formation evaluation. For immunohistochemistry evaluations, the sections were stained with TUNEL assay for evaluation of apoptosis (score 0-4), and CD45 antibody for inflammation evaluations.
Histopathological assessment of the stained section was done without knowledge of treatment group. Qualitative observations included the analysis of the tooth and underlying bone, including any soft tissue, which may have come into contact with the test material formulation. Cellular infiltrates (score 0-16) and inflammatory responses (score 0-4) at the repair site and the soft tissues were also evaluated.

For TDLQERGDNDISPFSGDGQPFKD [AC-100], the “proliferation and differentiation of human dental pulp cells” value [1] is listed as “potent activities on proliferation but not differentiation”, the “proliferation and differentiation of the cells to osteoblasts” value [2] is listed as “dose dependently induce proliferation and differentiation” and the “proliferation and differentiation of osteoblastic cells” value [3] is listed as “potent activities on proliferation and differentiation of osteoblastic cells”. The “presence of connective tissue and provisional matrix in the defects” value ([4]; day 3 after the extraction) was “dose dependent increase”, the “tissue reaction in the extraction sockets” value ([4]; day 3 after the extraction) was “dose dependent increase in tissue reaction” and the “percentage of connective tissue in the defects versus saline” value ([4]; day 28) was “comparable”. For the same sequence, the “quality of the new bone formed in the defect” value ([4]; day 28) was “dose dependently increases the quality of the new bone”, the “rate with which the defect is filled with new bone” value ([4]; day 28) was “dose dependently decreases the rate” and the “inflammatory response versus saline control” value ([4]; dog, in vivo) was “no significant difference”. The “bone growth, multiple re-applications versus single application” value ([4]; re-applied directly in the extraction sockets) was “not as effective as the single application regimen”, the “bone growth (bone ingrowth)” value ([4]; single application at surgery, 1 mg and 10 mg on a collagen sponge, 28 days) was “caused stimulation of bone growth” and the bone fracture healing [5] was “stimulates bone fracture healing”. For the same sequence, the “in vitro and in vivo bone formation activities” value [6] was “comparable to the same activities of fibroblast growth factor (FGF)”, the “maximum stimulation of new dentin formation, relative to saline” value ([7]; 200 ug, 3 times per week for one week, day 28) was 8 times and the “new dentin formation compared with Dycal” value ([7]; 28 days post surgery, highest two doses of AC-100 (20 ug and 200 ug), depending on the application schedule) was “comparable to or better than Dycal”. The new dentin formation ([7]; 28 days post surgery, versus saline negative control, single and multiple application schedules) was “dose dependent stimulation of new dentin formation”, the “number of apoptotic cells in the pulp” value ([7]; both 3 and 28 days post surgery, almost all doses applied) was “dose dependently decreased the number of apoptotic cells” and the “new dentin formation, multiple versus single application schedule” value ([7]; day 28) was “worked significantly better than the single application one”. For the same sequence, the “new dentin formation, single application” value ([7]; highest dose of AC-100, single application, comparable to Dycal) was “marginal activity”, the “new dentin formation, sealing with Single Bond+composite versus Vitrebond+Composite” value ([7]; single application schedule, almost all doses of AC-100) was “worked markedly better than sealing with Vitrebond+Composite” and the “apoptotic and necrotic cell death in the pulp cavities (study summary)” value ([7]; summary of Example 1) was “almost complete reduction of inflammatory reactions as well as apoptotic or necrotic cell death”. The “inflammatory reactions in the pulp cavities (study summary)” value ([7]; summary of Example 1) was “almost complete reduction of inflammatory reactions”, the “regeneration of new dentin in the defects (study summary)” value ([7]; summary of Example 1) was “superior regeneration of new dentin tissue” and the “pulp tissue reaction at the highest dose” value ([7]; three days post surgery, 200 ug) was “completely abolishing the pulp reaction”. For the same sequence, the pulp inflammation ([7]; three days post surgery, almost all doses applied) was “completely abolishing the pulp inflammation” and the “pulp tissue reaction (inflammatory and fibrosis response)” value ([7]; three days post surgery, sealed with Single Bond or Vitrebond) was “dose dependent inhibition of the tissue reaction”.

Source: US20060193916A1, “Formulations of peptides for periodontal and dental treatments” (Acologix, Inc., priority 2005, published 2006)
